Data reported in US20240174690A1, “ANNULATED 2-AMINO-3-CYANO THIOPHENES AND DERIVATIVES FOR THE TREATMENT OF CANCER” (BOEHRINGER INGELHEIM INTERNATIONAL GMBH, priority 2021, published 2024).

Assays:
[1] = system: LOVO cells; experiment: LOVO CTG proliferation assay (120 h) (CRC, G13D); format: cell-based; settings: Homo sapiens, CTG 120 h
Summary of the method: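 LOVO cells, 1000 per well in DMEM + 10% FCS, were plated overnight and then dosed with compound from DMSO stock. After 120 h at 37 °C, viability was read by CellTiter-Glo luminescence as a percentage of DMSO controls. IC50 was derived by four-parameter non-linear regression.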

[2] = system: NCI-H358 cells; experiment: NCI-H358 CTG proliferation assay (120 h) (NSCLC, G12C); format: cell-based, human; settings: Homo sapiens, assay 2, CTG, read-out: H358 (assay 2) IC50
Summary of the method: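 NCI-H358 cells (KRAS G12C) were seeded at 2000/well (assay 1) or 200/well (assay 2) in RPMI-1640 + 10% FCS and dosed with a logarithmic series, DMSO-normalized. After 120 h, viability was read by CellTiter-Glo luminescence as percent of DMSO control, with a T0 read at dosing. IC50 came from a four-parameter fit.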

[3] = target: KRAS (G12C)::SOS1 (Homo sapiens (Human), UniProt P01116, C118S/C51S/C80L/G12C); experiment: KRAS::SOS1 AlphaScreen binding assay, KRAS G12C
KRAS (G12C)::SOS1, sequence (P01116 other isoform, or with tags, fused parts or gaps G12C/C51S/C80L/C118S): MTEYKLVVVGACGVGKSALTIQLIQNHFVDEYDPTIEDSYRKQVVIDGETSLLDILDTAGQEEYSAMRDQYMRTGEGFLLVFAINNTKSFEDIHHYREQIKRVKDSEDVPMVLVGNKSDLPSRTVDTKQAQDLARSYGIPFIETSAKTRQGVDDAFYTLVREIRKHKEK
Summary of the method: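 AlphaScreen measurement of compound disruption of biotinylated, GDP-loaded KRAS 1-169 (10 nM; G12C 7.5 nM) binding to GST-SOS1 564-1049 (5 nM with G12D/G12C, 10 nM otherwise), with 10 μM GDP in PBS/0.1% BSA/0.05% Tween 20. Timing was 30 min compound preincubation, then 60 min with beads at room temperature; top concentration 100 μM, 4-parameter IC50.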

Compound	IC50 [1]	IC50 [2]	IC50 [3]
C[C@H](Oc1cc(N2CCN(C)C3(CC3)C2)nc(-c2onc3c2CCC[C@@]32CCCc3sc(N)c(C#N)c32)n1)[C@@H]1C[C@@H](F)CN1C [I-39]	354 nM	1450 nM	10 nM
C[C@H](Oc1cc(N2CCN(C)C3(CCC3)C2)nc(-c2onc3c2CCC[C@@]32CCCc3sc(N)c(C#N)c32)n1)[C@@H]1CCCN1C [I-44]	925 nM	2330 nM	13 nM
C[C@H](Oc1cc(N2CCNC3(CC3)C2)nc(-c2onc3c2CCC[C@@]32CCCc3sc(N)c(C#N)c32)n1)[C@@H]1C[C@@H](F)CN1C [I-45]	315 nM	470 nM	4 nM
CO[C@H]1CCN(C)[C@@H]1[C@H](C)Oc1cc(-n2ccc(CC(=O)NC(C)C)n2)nc(-c2onc3c2CCC[C@@]32CCCc3sc(N)c(C#N)c32)n1 [I-48]	23 nM	4 nM	2 nM
CO[C@H]1CCN(C)[C@@H]1[C@H](C)Oc1cc(N2CCNC3(CC3)C2)nc(-c2onc3c2CCC[C@@]32CCCc3sc(N)c(C#N)c32)n1 [I-49]	223 nM	145 nM	3 nM
CO[C@@H]1C[C@@H]([C@H](C)Oc2cc(N3CCN(C)C4(CC4)C3)nc(-c3onc4c3CCC[C@@]43CCCc4sc(N)c(C#N)c43)n2)N(C)C1 [I-50]	439 nM	733 nM	5 nM
CO[C@H]1CCN(C)[C@@H]1[C@H](C)Oc1cc(-n2ccc(C(=O)N[C@@H]3CCOC3)n2)nc(-c2onc3c2CCC[C@@]32CCCc3sc(N)c(C#N)c32)n1 [I-53]	29 nM	1 nM	1 nM
CO[C@H]1CCN(C)[C@@H]1[C@H](C)Oc1cc(-n2ccc(C(=O)N[C@H]3CCOC3)n2)nc(-c2onc3c2CCC[C@@]32CCCc3sc(N)c(C#N)c32)n1 [I-54]	32 nM	4 nM	1 nM
COCCNC(=O)c1ccn(-c2cc(O[C@@H](C)[C@@H]3[C@@H](OC)CCN3C)nc(-c3onc4c3CCC[C@@]43CCCc4sc(N)c(C#N)c43)n2)n1 [I-55]	39 nM	5 nM	1 nM
C[C@H](Oc1cc(-n2ccc(C(=O)N[C@@H]3CCOC3)n2)nc(-c2onc3c2CCC[C@@]32CCCc3sc(N)c(C#N)c32)n1)[C@@H]1CCCN1C [I-56]	23 nM	2 nM	2 nM
C[C@H](Oc1cc(-n2ccc(C(=O)N[C@H]3CCOC3)n2)nc(-c2onc3c2CCC[C@@]32CCCc3sc(N)c(C#N)c32)n1)[C@@H]1CCCN1C [I-57]	8 nM	6 nM	2 nM
COCCNC(=O)c1ccn(-c2cc(O[C@@H](C)[C@@H]3CCCN3C)nc(-c3onc4c3CCC[C@@]43CCCc4sc(N)c(C#N)c43)n2)n1 [I-58]	29 nM	5 nM	1 nM
C[C@H](NC(=O)c1ccn(-c2cc(O[C@@H](C)[C@@H]3CCCN3C)nc(-c3onc4c3CCC[C@@]43CCCc4sc(N)c(C#N)c43)n2)n1)c1ccccn1 [I-59]	22 nM	2 nM	1 nM
C[C@H](Oc1cc(-n2ccc(C(=O)N(C)C3COC3)n2)nc(-c2onc3c2CCC[C@@]32CCCc3sc(N)c(C#N)c32)n1)[C@@H]1CCCN1C [I-60]	49 nM	4 nM	1 nM
C[C@H](Oc1cc(N2C[C@@H](N(C)C)[C@@H](O)C2)nc(-c2noc3c2CCC[C@@]32CCCc3sc(N)c(C#N)c32)n1)[C@@H]1CCCN1C [II-10]	972 nM	570 nM	7 nM
C[C@@H]1CN(c2cc(O[C@@H](C)[C@@H]3C[C@@H](F)CN3C)nc(-c3noc4c3CCC[C@@]43CCCc4sc(N)c(C#N)c43)n2)CC2(CC2)N1 [II-17]	186 nM	134 nM	3 nM
C[C@H](Oc1cc(N2C[C@H](C)NC3(CC3)C2)nc(-c2noc3c2CCC[C@@]32CCCc3sc(N)c(C#N)c32)n1)[C@@H]1C[C@@H](F)CN1C [II-18]	49 nM	160 nM	3 nM
